Data set [1] relates to EL4 tumor cells. The settings on record: pre-treatment of tumor cells with PNT; 5:1 ratio, annexin V/DAPI, 5 and 16 hours.
Data set [2] deals with T1, H-2K^b (Mus musculus, UniProt P01901). Put plainly: RMA-S dissociation assay. Format: binding. The settings on record: PNT before loading with peptides.
Data set [3] relates to human melanoma UACC903 cell line. Put plainly: SILAC LC-MS/MS of HLA-A, -B, -C bound peptides after PNT. The settings on record: UACC903 cells.
In data set [4] the target is T1, H-2K^b. Put plainly: RMA-S binding assay. The settings on record: 2.5 mM PNT before peptide loading.
Data set [5] concerns H-2K^b associated peptides of EG.7 cells. Format: cell-based, mouse.
For data set [6], the system named is catalytic subunits of proteasomes. The data set is described as follows: Amount of catalytic subunits of proteasomes in EG7 tumor cells. Format: cell-based, mouse. The following applies: EG7 tumor cells treated with PNT or bortezomib.
The subject of data set [7] is EL4 cells. The data set is described as follows: Empty MHC class I detection by […] loading of EL4 cells. Format: cell-based, mouse. The settings on record: EL4 cells treated with PNT, n=4.
In data set [8] the test system is EG.7 cells. Put plainly: Viability and surface marker expression of treated EG.7 cells. The class given is cell-based, mouse.
Data set [9] has as its system proteasome. Put plainly: Proteasomal activity in tumor cell lysates. Format: biochemical, mouse.
In data set [10] the test system is nitrotyrosine (NT) in LLC tumor tissue. The data set is described as follows: Immunofluorescent NT staining of LLC tumor tissue. Format: in vivo, mouse. The settings on record: LLC tumor-bearing mice treated with RTA408.
Data set [11] relates to B16F10-iNOS cells. Put plainly: CTL assay of Pmel-1 cells against mixed B16F10-control and B16F10-iNOS cells. Format: cell-based, mouse. The settings on record: B16F10-control and B16F10-iNOS mixed 1:1, activated Pmel-1 cells, pre-treated with RTA408.
The target of data set [12] is T2, H-2D^b (Mus musculus, UniProt P01899).
T2 sequence (P01899 25-362): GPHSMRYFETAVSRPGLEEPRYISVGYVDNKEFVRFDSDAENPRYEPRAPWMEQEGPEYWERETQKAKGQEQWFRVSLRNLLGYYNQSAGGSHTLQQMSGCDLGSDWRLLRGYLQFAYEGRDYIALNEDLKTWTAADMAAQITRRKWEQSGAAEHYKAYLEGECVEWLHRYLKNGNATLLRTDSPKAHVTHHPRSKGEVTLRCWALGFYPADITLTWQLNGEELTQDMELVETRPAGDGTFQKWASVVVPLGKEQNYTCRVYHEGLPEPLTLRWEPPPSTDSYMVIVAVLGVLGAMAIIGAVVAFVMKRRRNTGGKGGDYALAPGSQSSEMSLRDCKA
T2 sequence (P01887 21-119 partner): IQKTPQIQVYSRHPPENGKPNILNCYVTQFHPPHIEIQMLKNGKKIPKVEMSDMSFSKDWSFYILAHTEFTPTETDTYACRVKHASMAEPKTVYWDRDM
The data set is described as follows: RMA-S dissociation assay, H-2D^b. The class given is binding.

T1 sequence (P01901 whole entry, looked up): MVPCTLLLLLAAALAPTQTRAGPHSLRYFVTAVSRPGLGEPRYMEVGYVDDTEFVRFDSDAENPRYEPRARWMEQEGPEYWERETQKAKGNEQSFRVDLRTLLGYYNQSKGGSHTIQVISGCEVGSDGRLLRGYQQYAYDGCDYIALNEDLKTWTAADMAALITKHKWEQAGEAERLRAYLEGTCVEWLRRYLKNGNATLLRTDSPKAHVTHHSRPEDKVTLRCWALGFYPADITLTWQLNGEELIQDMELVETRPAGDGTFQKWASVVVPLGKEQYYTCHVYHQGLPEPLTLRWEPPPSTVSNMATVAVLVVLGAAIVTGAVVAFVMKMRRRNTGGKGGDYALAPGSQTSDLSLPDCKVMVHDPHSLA

As to `O=NOO` [PNT, peroxynitrite], the “killing of tumor cells by CTLs generated against PNT-resistant peptides” value in data set [1] is “did not affect killing”. In addition, in data set [2], the “effect of PNT treatment of RMA-S cells on dissociation rates” value is on record as “no detectable effect”. Besides, the “change in HLA-A, -B, -C bound peptide profile” value in [3] is recorded as “substantially changed the peptide profile”. Besides, the “effect of PNT pre-treatment of RMA-S cells on binding of the peptides” value in data set [4] is given as “only a small decrease”. Besides, the “recovery of H-2K^b peptide profile” value in [5] (2.5 mM PNT on ice 5 min, 16 h after the treatment) is “returned to the pre-treatment level”. Besides, the “change in H-2K^b peptide profile” value in data set [5] (2.5 mM PNT on ice 5 min, right after the treatment (0 min)) was “no substantial changes”. The “amount of 6 catalytic subunits of proteasomes” value in data set [6] is “did not affect”. In addition, the “total H-2Kb expression, PNT-treated vs control cells” value in [7] is “no differences”. In [8] (2.5 mM PNT), the “NT (nitrotyrosine) expression” value is listed as “substantial up-regulation”, the cell viability entry was “did not affect” and the “expression of MHCI H-2K^b molecules” value was “did not affect”. In addition, the “effect on proteasomal activity in IFN-γ pre-treated vs non-pre-treated cells” value in data set [9] (EG7 and LLC cells, 100 ng/ml IFN-γ 24 hours, then PNT) was “the same”. Also, the “recovery of proteasomal activity over time” value in data set [9] (EG.7 cells, 2.5 mM PNT, chymotrypsin, trypsin and caspase-like activities) was “almost completely restored by 22 hours”. In data set [9] (EL4 and LLC cell lines, 2.5 mM PNT 5 min on ice, proteasome-specific fluorogenic substrates), the “proteasome types and activities affected” value is “affected mostly chymotrypsin- and trypsin-like activities associated with constitutive proteasomes”. Besides, the proteasomal activity entry in data set [9] (tumor cells treated with 2.5 mM PNT for 5 min, n=3) is listed as “profound decrease”.

Regarding `CC1(C)CC[C@]2(NC(=O)C(C)(F)F)CC[C@]3(C)[C@H](C(=O)C=C4[C@@]5(C)C=C(C#N)C(=O)C(C)(C)[C@@H]5CC[C@]43C)[C@@H]2C1` [RTA408, Omaveloxolone], the “NT staining in tumor tissues” value in data set [10] is “reduced NT staining”. Further, the “resistance of B16F10-iNOS cells to killing by CTLs” value in [11] is recorded as “completely abrogated resistance”.

`CC(C)C[C@H](NC(=O)[C@H](Cc1ccccc1)NC(=O)c1cnccn1)B(O)O` [bortezomib]: the “representation of MHCI peptides vs non-treated cells” value in [5] (EG.7 cells, 15 nM bortezomib) was “substantial decrease”. In addition, the “amount of 6 catalytic subunits of proteasomes” value in data set [6] is given as “did not affect”. In data set [8] (15 nM bortezomib), the “expression of MHC class I (H2K^b)” value was “did not affect” and the “viability of tumor cells” value was “did not affect”. In [9] (EG.7 cells, 15 nM bortezomib, N=5), the proteasomal activity result was “modest inhibition”.

As to EGSRNQDWL, in data set [12], the “dissociation from H-2D^b” value is recorded as “dissociated significantly faster”.

(Values after PMC9566605 (Cancer cell, 2022).)
